The text below walks through data of patent US20200399308A1, “COMPOUNDS AND METHODS FOR ELICITING ANTIMICROBIAL ACTIVITY” (Technion Research & Development Foundation Limited, priority 2018, published 2020).

Series [1] has as its system OM. Nature of the series: Outer membrane damage by less hydrophobic analogs. Type of series: cell-based.
In series [2] the test system is Escherichia coli 25922. In words: Mouse peritonitis-sepsis model. Type of series: in vivo. As to conditions: neutropenic ICR mice; rifampin 20 mg/kg orally alone. The procedure:
A mouse peritonitis-sepsis model was created as described elsewhere. Infection was obtained after intraperitoneal injection of bacteria from a logarithmic-phase culture. Infected mice were treated subcutaneously. The doses were selected to allow comparison with the reference compound and to remain below the maximum tolerated dose after double-dose administration. […] Briefly, mouse peritonitis sepsis model for in vivo studies were performed using male ICR mice ([…]) obtained from Envigo Laboratories (Rehovot, Israel). […] Infection was obtained by intraperitoneal injection of a logarithmic phase culture of E. coli 25922 (1.3±0.2×10^6 CFU permouse in 0.3 ml PBS). […] Infection control mice were injected with the PBS vehicle. Mouse survival was monitored for up to 7 days after treatment. Statistical analyses were performed by paired Student's t test, at α=0.05.

Series [3] deals with E. coli strain 14182. In words: Checkerboard antibiotic MIC with Compound B. Type of series: cell-based, Escherichia coli. The procedure: (§1) Minimal inhibitory concentrations (MICs) were determined as previously described. […] MICs were determined by microdilution susceptibility testing in 96-well plates (by Nunc) using inocula of 10^5 bacteria per ml. Cell populations were evaluated by optical density measurements at 620 nm and were calibrated against a set of standards. Hundred (100) μl of a bacterial suspension were added to 100 μl of culture medium (control) or to 100 μl of culture medium containing various tested compound concentrations in 2-fold serial dilutions. Inhibition of proliferation was determined by optical density measurements at 620 nm after an incubation period of 24 hours at 37° C. Data were obtained from ≥2 independent experiments performed in duplicate.
(§2) Shown in parentheses are calculated sensitization factor, defined as antibiotic's MICs ratio (in absence vs. presence of Compound B) at specified Compound B concentration.

Series [4] concerns E. coli strain 14384. Nature of the series: Checkerboard antibiotic MIC with Compound B. Type of series: cell-based, Escherichia coli. The procedure:
as §1, §2

The test system of series [5] is E. coli strain 16327. In words: Checkerboard antibiotic MIC with Compound B. Type of series: cell-based, Escherichia coli. The procedure: as §1, §2
The subject of series [6] is E. coli strain 25922. In words: Checkerboard antibiotic MIC with Compound B. Type of series: cell-based, Escherichia coli. The procedure: as §1, §2
In series [7] the test system is E. coli strain 35218. Nature of the series: Checkerboard antibiotic MIC with Compound B. Type of series: cell-based, Escherichia coli. The procedure:
as §1, §2

Series [8] has as its system E. coli strains 25922, 35218, 14182, 16327, 14384. In words: MIC against the 5 listed E. coli strains of Table 2 (stated together). Conditions: absence of Compound B. Type of series: cell-based, Escherichia coli. The procedure: as §1, §2
Series [9] deals with E. coli 25922. In words: Simultaneous versus delayed drug exposure assay in LB. Type of series: cell-based, Escherichia coli. The procedure: (§3) Time-kill kinetics data were determined using 100 μl of bacterial suspension (10^6 CFU/ml), which was added to […] LB containing none of or specified concentrations of the tested compound, antibiotic, and combinations thereof. After the specified exposure time points (37° C. under shaking), aliquots were formed, subjected to serial 10-fold dilutions in saline (0.85% NaCl), and plated for bacterial enumeration after additional 24 hours incubation at 37° C. Time-kill experiments in human and mouse plasma were performed as described elsewhere. The effects of drug delay were assessed in LB, except that bacteria were pre-incubated with the tested compound or antibiotic for the specified time points, centrifuged, and resuspended in fresh LB-containing antibiotic or the tested compound, respectively, and incubated for 3 hours before CFU enumeration.

The subject of series [10] is E. coli 25922. Nature of the series: Time-kill kinetics in broth versus plasma. Type of series: cell-based, Escherichia coli. The procedure:
as §3

For series [11] the following is noted: Oral 20 mg/kg, published data, cited from earlier work.

Structures are written as SMILES. Like-named read-outs stand apart in the source and are kept apart here. Non-standard residues stand in square brackets, D forms with d. Residues, ends and D or L forms follow the SMILES beside them. *: point of attachment. 12Ado = NCCCCCCCCCCCC(=O)O; Octanoyl = CCCCCCCC(=O)*

Regarding `CCCCCCCC(=O)N[C@@H](CCCCN)C(=O)N[C@@H](CCCCN)C(=O)NCCCCCCCCCCCC(=O)N[C@@H](CCCCN)C(N)=O` [Compound C8KKC12K] (Octanoyl-KK[12Ado]K-NH2), the “damage to the OM” value in series [1] is recorded as “able to damage the OM”.

In the case of `CO[C@H]1/C=C/O[C@@]2(C)Oc3c(C)c(O)c4c(O)c(c(/C=N/N5CCN(C)CC5)c(O)c4c3C2=O)NC(=O)/C(C)=C\C=C\[C@H](C)[C@H](O)[C@@H](C)[C@@H](O)[C@@H](C)[C@H](OC(C)=O)[C@@H]1C` [Rifampin, rifampin], the “survival rate of infected mice” value in series [2] is given as “zero”. In addition, the “Antibiotic MIC in the presence of Compound B” value (“Antibiotic MIC in the presence” for short) worked out at 8 µg/mL in series [3] (Compound B 0 μM); 0.031 µg/mL in [3] (Compound B 2.5 μM); 0.004 µg/mL in series [3] (Compound B 5 μM); 0.002 µg/mL in series [3] (Compound B 10 μM); 8 µg/mL in series [4] (Compound B 0 μM); 0.016 µg/mL in [4] (Compound B 2.5 μM). The “Antibiotic MIC in the presence” value in [4] (Compound B 5 μM) was found to be 0.008 µg/mL; in series [4] (Compound B 10 μM), 0.002 µg/mL; in series [5] (Compound B 0 μM) it was 16 µg/mL; in [5] (Compound B 2.5 μM), 0.031 µg/mL; in [5] (Compound B 5 μM), 0.004 µg/mL; in [5] (Compound B 10 μM) it was 0.002 µg/mL. For the same compound, the “Antibiotic MIC in the presence” value in series [6] (Compound B 0 μM) was 8 to 16 µg/mL; in series [6] (Compound B 0 μM, listed as rifampin), 16 µg/mL; in [6] (Compound B 2.5 μM), 0.063 µg/mL; in series [6] (Compound B 5 μM), 0.004 µg/mL; in series [6] (Compound B 10 μM), 0.001 µg/mL; in [7] (Compound B 0 μM) it was 8 µg/mL. Also, the “Antibiotic MIC in the presence” value in series [7] (Compound B 5 μM) is 0.016 µg/mL; in [7] (Compound B 10 μM), 0.002 µg/mL. Besides, the MIC in [6] (Escherichia coli, read-out: rifampin's MIC value, in the presence of Compound B) turned out to be 0.001 µg/mL. For the same compound, the “antibiotic MICs in the absence of the compound, all the strains tested” value in series [8] is 8 to 16 µg/mL. Also, the “reduction of CFU count” value was ~4 log units in series [9] (0.06 μg/ml rifampin in the presence of Compound B (10 μM), simultaneous, 3 hours in LB) and “more than 3 log units” in series [10] (human plasma, within 2 hours of exposure, rifampin 1 μg/ml with Compound B 0.6 μM). Besides, in series [9] (Compound B 10 μM with 0.06 μg/ml rifampin or 4 μg/ml erythromycin, LB), the “effect of delayed exposure on sensitization by Compound B” value was “nearly abolished the sensitization effect”. Besides, the “reduction of bacterial survival” value in series [10] (LB broth, 24-hours end point, rifampin 1 μg/ml combined with Compound B 0.6 μM) is given as “more than 99%”. Further, the “time to accomplish the CFU reduction (more than 3 log units)” value in series [10] (human plasma, antibiotic with Compound B 0.6 μM) is on record as ≤ 2 hours. Also, the “combined action with Compound B” value in series [10] (mouse plasma, 24 hours end point, Compound B 10 μM with rifampin 1 μg/ml or erythromycin 3 μg/ml) was “expressed synergism of action”. Also, the Plasma concentration in series [11] (0.5 h) is 6500 ± 4700 ng/mL; in series [11] (1 h), 10300 ± 400 ng/mL; in series [11] (2 h), 13200 ± 4400 ng/mL.

One may read the MIC as the least concentration at which growth counts as inhibited.
